Starred links: 1 amine or outer side, 2 acyl side, 3 side chain; linkers in the order of their positions; H or OH if unused. Positions of bridges follow the written chain, without caps; N, C: chain ends. Non-standard residues stand in square brackets, D forms with d. Residues, ends and D or L forms follow the SMILES beside them. Chains are numbered I, II in the order given. Actinocin(9to1) = Cc1c2oc3c(C)ccc(C(=O)[*:1])c3nc-2c(C(=O)[*:2])c(N)c1=O; NMeV = CN[C@H](C(=O)O)C(C)C; Sar = CNCC(=O)O
How the values were obtained:
Type in all cases: cell-based, human
[1] = system: intracellular Ca2+ mobilization in MCF-7 cells; assay: Measurement of [Ca2+]i in Fluo-3 loaded MCF-7 cells; conditions: for effect on E2-induced rise of [Ca2+]i: pretreatment then E2 (DMS 10 μM 30 min; ICI 10 μM; BHQ 100 nM; EGTA 2 mM; 2-APB 75 μM); for effect on [Ca2+]i when added alone: S1P 100 nM, E2-BSA 1 μM
Description: The fluorescence of the cells was monitored at an excitation wavelength of 490 nm and an emission wavelength of 525 nm. Each recording was calibrated by determining the maximal uptake of calcium (Fmax) in the presence of 0.1% Triton X as well as the level of autofluorescence (Fmin), after quenching Fluo-3/AM fluorescence with 1 mM Mn2^+.

[2] = system: SK activity in MCF-7 cells; assay: SK activity assay in MCF-7 cells; conditions: for effect on E2-mediated SK activation: pretreatment (ICI 10 μM 1 h; PTX 50 ng/ml 16 h) then 10 nM E2
Description: (§1) Briefly, after desired treatments the cells were washed with ice-cold PBS, scraped from the culture dishes and homogenized in lysis buffer containing 20 mM Tris (pH 7.4), 20% glycerol, 1 mM DTT, 1 mM EDTA, 10 μM MgCl2, 1 mM Na3VO4, 15 mM NaF, 10 μg/ml leupeptin and aprotinin, 1 mM PMSF and 0.5 mM 4-deoxypyridoxine. After centrifugation at 13,000×g for 30 min, SK activity was measured by incubating the cytosolic fraction with 5 μM sphingosine dissolved in 0.1% Triton X-100 and [γ^32P]ATP (1 mM, 0.5 mCi/ml) for 30 min at 37° C. as described previously (Pitson et al, 2000, supra; Xia, P., 1998, supra). The enzyme activity was normalized by total protein concentration of each sample.

MCF-7 cells [3] = assay: Cell growth assay (MTS) in MCF-7 cells; conditions: 10 nM E2, in the absence of serum
Description: To assess cell proliferation, we used the CellTiter 96 AQueous proliferation assay (Promega Corp.) that is based on metabolic conversion of a tetrazolium compound MTS to a colored product by living cells as described in the manufacturer's protocols. Cells (4×10^3 cell/well) were seeded in 4 to 6 replicates into 96-well plates and incubated at 37° C. in 5% CO2 with or without E2 (10 nM) in phenol-red free media for a desired time period. The medium was changed every 2-3 days. The absorbance intensity of the MTS product is directly proportional to the number of viable cells in culture when cell number is between 2000 and 200 000, otherwise the exponential dependence was determined. Total cell numbers were calculated based on calibration curves.

MCF-7 cells [4] = assay: Focus formation assay in MCF-7 cells; conditions: 10 nM E2, 10-day culture
Description: MCF-7 cells were seeded into 24-well plastic tissue culture plates at a density of 1×10^5 cells/ml/well, and maintained in phenol-red free media containing 10% FCS until the cells reached confluent. The cells were then refed at 24 h before first treatment with or without 10 nM E2 and then every 2-3 days thereafter with 1% FCS medium. After 5, 10 and 14 days the cultures were photographed and number of foci were counted. For colony assay, cells (1×10^4) suspended in 2 ml of 0.36% agar (Becton Dickinson, Sparks, MD) with phenol-red free growth medium were added on a base layer of 0.72% agar containing culture medium as described previously (Xia, P., Gamble, J. R., Wang, L., Pitson, S. M., Moretti, P. A., Wattenberg, B. W., D'andrea, R. J., and Vadas, M. A. (2000) Curr. Biol., 10: 1527-1530). After 14 days of incubation, the colonies were stained with MTT and counted. All experiments were done at least three times using triplicates per experimental point. Average was assessed by counting the number of colonies under low magnification (×20) at four points on each well.

[5] = system: Erk1/2 phosphorylation in MCF-7 cells; assay: Erk1/2 phosphorylation by Western blotting in MCF-7 cells
Description: Cells were harvested and lysed by sonication in lysis buffer containing 50 mM Tris/HCl (pH 7.4), 10% glycerol, 0.5% Triton-X-100, 150 mM NaCl, 1 mM dithiothreitol, 2 mM Na3VO4, 10 mM NaF, 1 mM EDTA and protease inhibitors (Complete; Roche Molecular Biochemicals). Protein concentrations of the cell lysates were determined with a Bio-Rad Dc protein assay kit (Bio-Rad Laboratories, CA). Aliquots of cell lysates containing 30-50 μg of proteins were resolved by 12% SDS-PAGE and transferred to Hybond-P membranes (Amersham Biosciences, Inc.). The membranes were then probed with appropriate antibodies according to standard method as described previously (Pitson, S. M., 2000, supra). The immunocomplexes were detected with an enhanced chemiluminescence PLUS kit (Amersham Pharmacia Biosciences) and by using Typhoon 9410 Variable Mode Imager (Amersham Pharmacia Biotechnologies).

[6] = system: SK activity in MDA-MB-231 cells; assay: SK activity assay in MDA-MB-231 cells; conditions: 10 nM E2, 15 min or 6 hours
Description: as §1

4-hydroxytamoxifen [OH-Tam]
effect on E2-induced rise of [Ca2+]i [1]: not prevented

CC/C(=C(\c1ccccc1)c1ccc(OCCN(C)C)cc1)c1ccccc1 [Tamoxifen]
effect on E2-mediated SK activation ([2]; MCF-7 cells): no influence

17β-estrodiol [E2]
effect on cell growth (MCF-7 cells [3]): stimulated cell growth | time to maximal level of [Ca2+]i ([1]; E2 1 nM): 30 ± 10 s | foci formation (MCF-7 cells [4]): able to form solid cell foci | effect on Erk 1/2 activity ([5]; 10 nM E2): significant increase | time of maximal Erk 1/2 activity ([5]; 10 nM E2, basal levels by 60 min): ≤ 15 min | SK activity after additional dose of E2 ([2]; MCF-7 cells pretreated with E2 for 16 h, pulsed with additional 10 nM E2): additive increase | prolonged effect on SK activity ([2]; MCF-7 cells, 10 nM E2, after 6 hours, remained more than 24 hours): significant increase | maximum SK activity ([2]; MCF-7 cells, 10 nM E2, within 15 min): 240±25 % of basal | concentration at which the E2-induced SK activity reaches a maximum ([2]; MCF-7 cells, increasing doses, 15 min): 1 µM | SK activity [6]: No increased activity

CCCCCCCCCCCCCC(=O)O[C@@H]1[C@@H](C)[C@@]2(O)[C@@H](C=C(CO)C[C@]3(O)C(=O)C(C)=C[C@@H]23)[C@@H]2C(C)(C)[C@]12OC(C)=O [PMA, phorbol 12-myristate 13-acetate]
increase in SK activity over basal levels ([2]; PMA 100 ng/ml, 30 min, SK and empty-vector transfected MCF-7 cells): approximately 2 fold

CC(C)(C)c1cc(O)ccc1O [BHQ, tert-butylhydroquinone]
effect on E2-induced rise of [Ca2+]i [1]: strongly reduced

O=C(O)CN(CCOCCOCCN(CC(=O)O)CC(=O)O)CC(=O)O [EGTA]
effect on E2-induced rise of [Ca2+]i [1]: slightly decreased

CCCCCCCCCCCCC/C=C/[C@@H](O)[C@@H](N)COP(=O)(O)O [S1P, sphingosine-1-phosphate]
effect on [Ca2+]i when added alone [1]: resulted in an increase

pertussis toxin
effect on E2-mediated SK activation ([2]; MCF-7 cells): strongly abrogated

Cc1c2oc3c(C)ccc(C(=O)N[C@@H]4C(=O)N[C@H](C(C)C)C(=O)N5CCC[C@H]5C(=O)N(C)CC(=O)N(C)[C@@H](C(C)C)C(=O)O[C@@H]4C)c3nc-2c(C(=O)N[C@@H]2C(=O)N[C@H](C(C)C)C(=O)N3CCC[C@H]3C(=O)N(C)CC(=O)N(C)[C@@H](C(C)C)C(=O)O[C@@H]2C)c(N)c1=O [actinomycin D] (I: T[dV]P[Sar][NMeV] / II: T[dV]P[Sar][NMeV]; ester I:1-I:C, II:1-II:C; linker I:N-II:N via Actinocin(9to1))
effect on first peak of E2-induced SK activity ([2]; MCF-7 cells, 1 μM actinomycin D pretreatment 4 h, 10 nM E2): no overt effect | effect on delayed E2-induced activation of SK ([2]; MCF-7 cells, 1 μM actinomycin D, 10 nM E2 prolonged time course): abrogated

C[C@]12CC[C@@H]3c4ccc(O)cc4C[C@@H](CCCCCCCCC[S+]([O-])CCCC(F)(F)C(F)(F)F)[C@H]3[C@@H]1CC[C@@H]2O (stereo partly drawn) [ICI 182,780]
effect on E2-induced rise of [Ca2+]i [1]: not prevented | effect on E2-mediated SK activation ([2]; MCF-7 cells): no influence

COc1cccc(-c2cc(=O)c3ccccc3o2)c1N [PD098095]
effect on E2-promoted phosphorylation of Erk1/2 ([5]; 100 μM pretreatment 30 min, 10 nM E2): blocked

NCCOB(c1ccccc1)c1ccccc1 [2-APB, 2-Aminoethoxydiphenyl borate]
effect on E2-induced rise of [Ca2+]i [1]: unable to effectively abolish

17β-estrodiol-BSA [E2-BSA]
effect on [Ca2+]i when added alone [1]: same extent as E2
